Data from patent publication US11667602B2, “Compounds and their use” (AstraZeneca AB, priority 2020, dated 2023).

Experiments:
[1] = cited from earlier work
Solubility (Test F) = type: physicochemical; details: arithmetic mean if run multiple times
Method: The assay was conducted according to the Solubility Assay described in pages 164-167 of Wernevik, J. et al., “A Fully Integrated Assay Panel for Early Drug Metabolism and Pharmacokinetics Profiling”, Assay and Drug Development Technologies, 2020, 18(4), 157-179. Data are reported in Table 36 as solubility ([…]. Where the assay was run multiple times for the same compound, the arithmetic mean is reported.

[2] = Human Liver Microsomal Stability (Test C); type: in vitro ADME; details: human, liver microsomes
Outline: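 CLint (μl/min/mg protein) derived from compound depletion in human liver microsomes following a published standardized early-DMPK protocol; replicate determinations given as arithmetic mean.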

human RXFP1 = biological target: T1, human RXFP1 (Homo sapiens, UniProt Q9HBX9); assay: RXFP1 Hu cAMP (Test A); type: cell-based; design: expressed in transfected cells; host or cells: Jump-In T-REx CHO-K1 cells (ThermoFisher), induced with 10 ng/ml doxycycline for 24 h
T1 sequence (Q9HBX9 1-757): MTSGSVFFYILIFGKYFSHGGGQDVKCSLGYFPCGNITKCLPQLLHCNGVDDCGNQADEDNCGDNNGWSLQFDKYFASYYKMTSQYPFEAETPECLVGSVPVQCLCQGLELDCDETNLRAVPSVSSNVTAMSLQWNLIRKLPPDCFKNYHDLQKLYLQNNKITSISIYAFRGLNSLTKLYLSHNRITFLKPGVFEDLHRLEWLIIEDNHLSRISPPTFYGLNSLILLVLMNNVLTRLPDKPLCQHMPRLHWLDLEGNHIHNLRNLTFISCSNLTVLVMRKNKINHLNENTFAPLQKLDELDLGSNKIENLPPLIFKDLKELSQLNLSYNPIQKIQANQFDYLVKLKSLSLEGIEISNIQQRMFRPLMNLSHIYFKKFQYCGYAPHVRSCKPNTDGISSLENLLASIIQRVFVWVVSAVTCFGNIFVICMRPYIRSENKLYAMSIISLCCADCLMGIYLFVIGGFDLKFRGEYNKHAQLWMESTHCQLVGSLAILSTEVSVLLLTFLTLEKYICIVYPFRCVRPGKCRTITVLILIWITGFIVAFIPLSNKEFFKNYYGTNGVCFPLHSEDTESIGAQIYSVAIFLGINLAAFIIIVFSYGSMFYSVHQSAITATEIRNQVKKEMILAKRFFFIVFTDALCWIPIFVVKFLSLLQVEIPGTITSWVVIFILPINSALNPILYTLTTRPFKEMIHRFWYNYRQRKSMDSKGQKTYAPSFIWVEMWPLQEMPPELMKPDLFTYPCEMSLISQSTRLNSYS
Outline: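 Competitive HTRF cAMP readout (2 h, room temperature) in CHO-K1 cells stably expressing human RXFP1, induced with 10 ng/ml doxycycline for 24 h; IBMX 0.5 mM final.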

[3] = Rat Hepatocyte Stability (Test E); type: in vitro ADME; details: rat, hepatocytes, geometric mean if run multiple times
Outline: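 Intrinsic clearance in rat hepatocytes, expressed as μl/min/10^6 cells, following the literature integrated DMPK panel method. Repeat determinations combined as geometric mean.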

[4] = Human Hepatocyte Stability (Test D); type: in vitro ADME; details: human, cryopreserved pooled human hepatocytes (LiverPool 10-Donor), geometric mean if run multiple times
Outline: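 Intrinsic clearance (μL/min/10^6 cells), derived as kV/N from the log-linear loss of parent compound. Compound incubated at 37 °C with cryopreserved pooled human hepatocytes, 0.25×10^6 cells in 0.25 mL L-15; dosing solution 100 μM in acetonitrile. Singlicate incubations, cassette LC-MS; repeats reported as geometric mean.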

[5] = Human Plasma Protein Binding (Test B); type: in vitro ADME; details: fraction unbound (fu)
Outline: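 Values given as % free (fu) in human plasma, using the method of Wernevik et al. (2020). For compounds tested more than once, the arithmetic mean is given.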

serelaxin
significant blood pressure drop ([1]; approximately one third of the patients, after receiving serelaxin intravenously): > 40 mm Hg
markers of cardiac, renal and hepatic damage and congestion ([1]; continuous intravenous administration to hospitalized patients): improved
clearance from the patients' circulation ([1]; patients, positive effects rapidly disappeared once intravenous injection stopped): rapid clearance

COc1cc(F)c(O[C@H]2CC[C@@H](C(=O)O)CC2)cc1C(=O)N[C@@H]1[C@H]2CC[C@H](C2)[C@@H]1C(=O)NCC(C)(C)C [Example 180, (1S,4s)-4-(2-Fluoro-4-methoxy-5-(((1S,2R,3S,4R)-3-(neopentylcarbamoyl)bicyclo[2.2.1]heptan-2-yl)carbamoyl)phenoxy)cyclohexane-1-carboxylic acid]
solubility (Solubility (Test F)): > 1000 µM
microsomal CLint [2]: 6.8 µL/min/mg
Test A Sinf (human RXFP1; RXFP1 Hu cAMP): 100%
EC50 (human RXFP1; Test A EC50, RXFP1 Hu cAMP): 950 nM
hepatocyte CLint [3]: 130 µL/min/1e6 cells
hepatocyte CLint at 1 µM [4]: 2.2 µL/min/1e6 cells
Test B Human Plasma Protein Binding (% free) [5]: 14 % free
